This note sets out measurements from US20140134230A1, “TRANSDERMAL THERAPEUTIC SYSTEM” (priority 2005, published 2014).

Series [1] in a line: Rivastigmine's biopharmaceutical properties in humans. The series is classed as in vivo. The text has this:
Little has been published in detail on rivastigmine's biopharmaceutical properties in humans. […] It is subject to pre-systemic and systemic metabolism.

Series [2] can be described thus: Saturation solubility of rivastigmine free base in the silicone adhesive. The series is classed as physicochemical.

Molecules are shown by their SMILES.

As to `CCN(C)C(=O)Oc1cccc([C@H](C)N(C)C)c1` [rivastigmine], in series [1], the absorption entry is “rapidly and completely absorbed”; the metabolism result is “metabolised mainly through hydrolysis by esterases”. Further, the “saturation solubility in the silicone adhesive” value in series [2] was “about 5 %-wt”.
